What all share (assay type): biochemical
Test [1] addresses T1, Photinus pyralis luciferase (Photinus pyralis, UniProt P08659).
T1 construct: purchased Promega
In words: Bioluminescence of nucleotides with firefly luciferase in pyrophosphate assay buffer (ELIDA reagent). The conditions noted are these: for wavelength of maximal light emission: pH 7.8. How it is done: Pyrophosphate assay buffer (PAB) was made up as follows:
50 μl of PAB was aliquoted into two wells of a 96 well plate. To one sample was added 1 μl of 0.1 mM sodium pyrophosphate; to the other was added 1 μl of 2 mM dATP. The resulting light emission was observed using a Syngene light-box with a black and white CCD camera integrating the signal over 5 seconds. […] The amount of dATP added is equivalent to ⅕ the amount used in a standard 50 μl PCR reaction.
A green filter was placed in front of the lens of the CCD camera and the sample above was observed once more.

In the next test the target is T2, Taq polymerase (Thermus aquaticus, UniProt P19821).
T2 construct: purchased Roche
In words: PCR using the dATP analogue, product seen by agarose gel electrophoresis. How it is done:
A 50 μl PCR reaction contained the following:
The sequences of primers 1 and 2 and the test plasmid are given in SEQ ID Nos. 1, 2 and 3, respectively. The size of the expected PCR product was 158 bp.
Taq polymerase was added to the sample after heating to 95° for 30 seconds. The following cycling parameters were implemented on a Perkin-Elmer GeneAmp PCR system 2400.
10 μl of the resulting PCR reaction was loaded onto a […] containing ethidium bromide alongside a molecular weight marker. The gel was run at 60V for 50 minutes and then visualised under a transilluminator.

Test [2] deals with T3, luciferase (Photinus pyralis, UniProt P08659). In words: Stability of light emission from ELIDA assays of PCR reactions. The settings on record: four consecutive readings over 1 minute; for light emission over time: 5 and 35 cycle PCR samples. How it is done: PCR reactions were set up and run as in Example 5. The analysis of each PCR sample was initiated by mixing 1 μl of the PCR reaction with 20 μl of ELIDA assay buffer. The light emitted from the sample was then measured with a Labsystems Luminoscan Ascent luminometer in a series of four consecutive light readings over a period of 1 minute. Each light reading represented the light emission from the sample integrated over a ten-second interval (using the machine's default PMT voltage).
This effect becomes greater with the number of PCR cycles. […] As a result, the magnitude of the differential between the readings for 5 and 35 cycles over the four readings taken, is almost constant (only 5% difference).

Test [3] deals with T3, luciferase. In words: Signal:background ratio in ELIDA assays of PCR reactions. The conditions noted are these: unreacted PCR mix vs 30 cycles, compared to dATP. The method, then:
PCR reactions were set up as in Example 2 except that only 0.5 pg of the test plasmid pPw601 a was used. Further, the PCR reactions contained either d-α-SATP or dATP. The light emission from an ELIDA assay of unreacted PCR mixes containing either d-α-SATP or dATP was measured as in Example 6. A further ELIDA assay was performed on the same samples after they had completed 30 cycles of a PCR reaction (and had produced the same amount of amplicon as judged by agarose gel analysis). The ratio of the light emission from the unreacted PCR mix to the reacted PCR mix is shown in FIG. 3 (showing signal:background ratio).

T1 sequence (P08659 whole entry): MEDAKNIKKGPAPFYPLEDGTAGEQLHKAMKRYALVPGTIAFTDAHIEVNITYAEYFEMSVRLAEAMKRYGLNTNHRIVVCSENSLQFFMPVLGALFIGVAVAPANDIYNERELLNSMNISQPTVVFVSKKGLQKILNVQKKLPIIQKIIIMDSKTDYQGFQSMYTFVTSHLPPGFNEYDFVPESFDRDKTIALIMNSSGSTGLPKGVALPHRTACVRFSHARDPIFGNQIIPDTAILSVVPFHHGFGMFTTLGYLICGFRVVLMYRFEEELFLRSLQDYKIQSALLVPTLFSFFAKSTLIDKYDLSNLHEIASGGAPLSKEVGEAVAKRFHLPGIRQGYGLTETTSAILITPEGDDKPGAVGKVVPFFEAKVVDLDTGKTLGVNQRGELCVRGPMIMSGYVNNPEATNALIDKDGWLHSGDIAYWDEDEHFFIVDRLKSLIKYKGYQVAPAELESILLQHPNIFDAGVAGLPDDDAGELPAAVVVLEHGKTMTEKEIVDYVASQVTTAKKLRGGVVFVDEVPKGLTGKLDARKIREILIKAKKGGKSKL
T3 sequence (P08659 whole entry): as above
T2 sequence (P19821 whole entry): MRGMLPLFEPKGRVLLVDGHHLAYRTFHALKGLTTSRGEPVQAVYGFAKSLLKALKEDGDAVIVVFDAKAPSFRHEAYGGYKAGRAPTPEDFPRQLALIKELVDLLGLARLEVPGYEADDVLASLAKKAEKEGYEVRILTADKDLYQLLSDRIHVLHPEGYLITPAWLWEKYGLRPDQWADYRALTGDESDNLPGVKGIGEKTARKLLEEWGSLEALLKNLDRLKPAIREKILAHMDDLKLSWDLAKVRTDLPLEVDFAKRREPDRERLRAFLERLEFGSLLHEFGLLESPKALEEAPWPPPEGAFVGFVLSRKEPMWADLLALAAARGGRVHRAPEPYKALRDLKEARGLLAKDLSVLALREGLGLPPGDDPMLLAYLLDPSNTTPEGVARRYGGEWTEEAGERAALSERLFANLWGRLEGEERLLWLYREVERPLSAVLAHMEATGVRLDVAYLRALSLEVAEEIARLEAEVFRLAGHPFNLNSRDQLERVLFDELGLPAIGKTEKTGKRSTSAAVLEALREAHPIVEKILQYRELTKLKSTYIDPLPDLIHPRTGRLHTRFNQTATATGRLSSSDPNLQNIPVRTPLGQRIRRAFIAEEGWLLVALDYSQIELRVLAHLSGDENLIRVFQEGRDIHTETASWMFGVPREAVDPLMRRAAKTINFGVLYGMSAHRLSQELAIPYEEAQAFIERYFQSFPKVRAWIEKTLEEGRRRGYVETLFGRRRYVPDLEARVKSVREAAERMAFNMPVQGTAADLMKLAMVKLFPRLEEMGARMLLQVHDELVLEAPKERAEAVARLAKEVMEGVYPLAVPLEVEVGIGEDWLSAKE

Take `Nc1ncnc2c1ncn2[C@@H]1O[C@H](COP(=O)(O)OP(=O)(O)OP(=O)(O)O)[C@@H](O)[C@H]1O` [ATP]: the “wavelength of maximal light emission” value in test [1] amounted to 550 nm.
For the compound `Nc1ncnc2c1ncn2[C@H]1C[C@H](O)[C@@H](COP(O)(=S)OP(=O)(O)OP(=O)(O)O)O1` (stereo partly drawn) [d-α-SATP], the “substrate quality for luciferase relative to dATP” value in test [1] (direct reaction with luciferase) is reported as “approximately one-hundred-fold poorer substrate for luciferase than dATP”. In addition, the “PCR product generated (gel)” value on Taq polymerase (used instead of dATP, 30 cycles) is “a PCR product is generated”. At luciferase [2], the “difference in the differential between the readings for 5 and 35 cycles over the four readings” value is on record as 5%; the “light emission over time” value is on record as “close to constant”. On luciferase [3], the “signal:background ratio” value is given as “considerably improves the signal:background ratio”.
`Nc1ncnc2c1ncn2[C@H]1C[C@H](O)[C@@H](COP(=O)(O)OP(=O)(O)OP(=O)(O)O)O1` [dATP]: the “light emission on addition to pyrophosphate assay buffer” value in test [1] (1 μl of 2 mM in 50 μl PAB, CCD camera, 5 seconds) was “significant light emission”. The “wavelength of maximal light emission” value in test [1] is given as 620 nm. Besides, the “PCR product generated (gel)” value at Taq polymerase (1/10th the usual concentration of 0.2 mM) is “no PCR product is detected”. Also, the “light emission over time” value on luciferase [2] is on record as “significant decay in light emission over time”.

The values are drawn from patent publication US20040185457A1, “Method for detecting dna polymerisation” (priority 2001, published 2004).
